Key:
[1] = test system: HT-29; experiment: Antiproliferative activity against human HT-29 cells after 72 hrs by MTT assay; format: functional, cell-based; details: HT-29, 72 h
[2] = test system: MDA-MB-231; experiment: Antiproliferative activity against human MDA-MB-231 cells after 72 hrs by MTT assay; details: MDA-MB-231, 72 h
[3] = test system: NCI-H226; experiment: Antiproliferative activity against human NCI-H226 cells after 72 hrs by MTT assay; format: functional, cell-based; details: NCI-H226, 72 h
[4] = Antiproliferative activity against human MKN45 cells after 72 hrs by MTT assay; format: functional, cell-based; details: MKN-45, 72 h
[5] = test system: SK-N-SH; experiment: Antiproliferative activity against human SK-N-SH cells after 72 hrs by MTT assay; format: functional, cell-based
[6] = target: T1, Caspase-3 (Homo sapiens) (UniProt P42574); experiment: Ratio of PAC1 EC50 to compound EC50 for procaspase 3 activity (unknown origin)
T1 sequence (whole entry): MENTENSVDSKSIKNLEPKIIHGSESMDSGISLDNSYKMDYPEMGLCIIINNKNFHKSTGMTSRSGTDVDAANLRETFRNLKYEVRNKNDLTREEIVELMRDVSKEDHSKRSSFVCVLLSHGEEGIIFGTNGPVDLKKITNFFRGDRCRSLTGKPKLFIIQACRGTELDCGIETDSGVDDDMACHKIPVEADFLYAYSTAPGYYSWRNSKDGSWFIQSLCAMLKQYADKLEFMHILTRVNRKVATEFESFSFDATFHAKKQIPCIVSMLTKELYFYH

[7] = target: T2, Caspase-3 (Homo sapiens, UniProt P42574); experiment: Induction of procaspase 3 activity (unknown origin) using Ac-DEVD-pNa as substrate after 2 hrs
T2 sequence (P42574 whole entry): T1 sequence (whole entry)

| Structure (SMILES) | IC50 [1] [nM] | IC50 [2] [nM] | IC50 [3] [nM] | IC50 [5] [nM] | Ratio EC50 [6] | EC50 [7] [nM] | IC50 [4] [nM] |
| --- | --- | --- | --- | --- | --- | --- | --- |
| CCN(CC)Cc1ccc2nc(NC(=O)N/N=C/c3ccc(OCc4ccc(Cl)cc4Cl)cc3O)sc2c1 | 2430 | 1520 | 700 | 1040 | – | – | 520 |
| CCN(CC)Cc1ccc2nc(NC(=O)N/N=C/c3ccc(O)cc3O)sc2c1 | 23700 | 4110 | 5160 | 6050 | – | – | 1740 |
| CC1CCN(Cc2ccc3nc(NC(=O)N/N=C/c4ccc(O)cc4O)sc3c2)CC1 | 2730 | 1660 | 4610 | 7740 | – | – | 4090 |
| O=C(N/N=C/c1ccc(OCc2ccc(Cl)cc2Cl)cc1O)Nc1nc2ccc(N3CCOCC3)cc2s1 | 4720 | 15100 | 1220 | 3140 | – | – | 1750 |
| CN(C)Cc1ccc2nc(NC(=O)N/N=C/c3ccc(OCc4csc(Cc5ccc6c(c5)OCO6)n4)cc3O)sc2c1 | 1880 | 1040 | 720 | 790 | – | – | 620 |
| Cc1ccc(COc2ccc(/C=N/NC(=O)Nc3nc4ccc(N5CCOCC5)cc4s3)c(O)c2)cc1 | 1580 | 19300 | 530 | 2510 | – | – | 750 |
| CC1CCN(Cc2ccc3nc(NC(=O)N/N=C/c4ccccc4O)sc3c2)CC1 | 10400 | 12300 | 2960 | 4360 | – | – | 680 |
| CC1CCN(Cc2ccc3nc(NC(=O)N/N=C/c4ccc(OCc5ccccc5)cc4O)sc3c2)CC1 | 1570 | – | 610 | 1320 | – | – | – |
| CN(C)Cc1ccc2nc(NC(=O)N/N=C/c3ccc(O)cc3O)sc2c1 | 77900 | > 100000 | 2980 | 14300 | – | – | 2850 |
| Cc1ccc(COc2ccc(/C=N/NC(=O)Nc3nc4ccc(CN(C)C)cc4s3)c(O)c2)cc1 | 2130 | 2650 | 1080 | 2580 | – | – | 1270 |
| CN(C)Cc1ccc2nc(NC(=O)N/N=C/c3ccc(OCc4ccccc4Cl)cc3O)sc2c1 | 1610 | 680 | 580 | 2940 | – | – | 330 |
| CCN(CC)Cc1ccc2nc(NC(=O)N/N=C/c3ccc(OCc4cccc(Cl)c4)cc3O)sc2c1 | 1880 | 570 | 1300 | 1830 | – | – | 420 |
| CN(C)Cc1ccc2nc(NC(=O)N/N=C/c3ccccc3O)sc2c1 | 5960 | 5950 | 2030 | 5140 | – | – | 1540 |
| CCN(CC)Cc1ccc2nc(NC(=O)N/N=C/c3ccc(OCc4ccccc4)cc3O)sc2c1 | 1440 | – | 880 | 1670 | – | – | – |
| O=C(N/N=C/c1ccc(OCc2csc(Cc3ccc4c(c3)OCO4)n2)cc1O)Nc1nc2ccc(N3CCOCC3)cc2s1 | 2310 | 4030 | 2140 | 6210 | – | – | 1010 |
| O=C(N/N=C/c1ccccc1O)Nc1nc2ccc(CN3CCOCC3)cc2s1 | 10300 | 12000 | 2710 | 7050 | – | – | 2340 |
| CN(C)Cc1ccc2nc(NC(=O)N/N=C/c3ccc(OCc4ccc(Cl)cc4)cc3O)sc2c1 | 2150 | 600 | 1170 | 2740 | – | – | 700 |
| CN(C)Cc1ccc2nc(NC(=O)N/N=C/c3ccc(OCc4ccc(C(C)(C)C)cc4)cc3O)sc2c1 | 1510 | 1140 | 830 | 1660 | – | – | 1040 |
| CCN(CC)Cc1ccc2nc(NC(=O)N/N=C/c3ccccc3O)sc2c1 | 4030 | 11300 | 1810 | 5790 | – | – | 1710 |
| CN(C)Cc1ccc2nc(NC(=O)N/N=C/c3ccc(OCc4cccc(Cl)c4)cc3O)sc2c1 | 2940 | 540 | 360 | 1190 | – | – | 190 |
| CC1CCN(Cc2ccc3nc(NC(=O)N/N=C/c4ccc(OCc5cccc(Cl)c5)cc4O)sc3c2)CC1 | 1720 | 1120 | 360 | 340 | – | 4260 | 670 |
| CCN(CC)Cc1ccc2nc(NC(=O)N/N=C/c3ccc(OCc4ccccc4Cl)cc3O)sc2c1 | 2230 | 740 | 560 | 2010 | – | – | 420 |
| O=C(N/N=C/c1ccccc1O)Nc1nc2ccc(N3CCOCC3)cc2s1 | 67900 | > 100000 | 4260 | 11700 | – | – | 9310 |

Now those with a lower IC50 [1], led by results:

| IC50 [1] [nM] | IC50 [2] [nM] | IC50 [3] [nM] | IC50 [5] [nM] | Ratio EC50 [6] | EC50 [7] [nM] | Structure (SMILES) | IC50 [4] [nM] |
| --- | --- | --- | --- | --- | --- | --- | --- |
| 1040 | 1510 | 1060 | 1560 | – | – | Cc1ccc(COc2ccc(/C=N/NC(=O)Nc3nc4ccc(CN5CCC(C)CC5)cc4s3)c(O)c2)cc1 | 310 |
| 590 | 1180 | 790 | 1480 | – | – | O=C(N/N=C/c1ccc(OCc2cccc(Cl)c2)cc1O)Nc1nc2ccc(N3CCOCC3)cc2s1 | 280 |
| 770 | 980 | 160 | 480 | 2.9 | 1420 | CCN(CC)Cc1ccc2nc(NC(=O)N/N=C/c3ccc(OCc4ccc(C(C)(C)C)cc4)cc3O)sc2c1 | 500 |
| 1360 | 4800 | 1020 | 3060 | – | 4080 | C=CCc1cccc(/C=N/NC(=O)CN2CCN(Cc3ccccc3)CC2)c1O [PAC-1] | 2610 |
| 950 | 880 | 410 | 1060 | – | – | CC1CCN(Cc2ccc3nc(NC(=O)N/N=C/c4ccc(OCc5ccc(Cl)cc5)cc4O)sc3c2)CC1 | 210 |
| 1.8 | 4460 | 260 | 1370 | – | – | O=C(N/N=C/c1ccc(OCc2ccc(Cl)cc2)cc1O)Nc1nc2ccc(N3CCOCC3)cc2s1 | 290 |
| 920 | 1040 | 240 | 920 | – | 18200 | CC(C)(C)c1ccc(COc2ccc(/C=N/NC(=O)Nc3nc4ccc(N5CCOCC5)cc4s3)c(O)c2)cc1 | 460 |
| 1120 | 880 | 810 | 1250 | – | – | CC1CCN(Cc2ccc3nc(NC(=O)N/N=C/c4ccc(OCc5csc(Cc6ccc7c(c6)OCO7)n5)cc4O)sc3c2)CC1 | 550 |
| 1000 | 300 | 390 | 1030 | – | – | CC1CCN(Cc2ccc3nc(NC(=O)N/N=C/c4ccc(OCc5ccc(Cl)cc5Cl)cc4O)sc3c2)CC1 | 280 |
| 1030 | 2300 | 790 | 850 | – | – | CC1CCN(Cc2ccc3nc(NC(=O)N/N=C/c4ccc(OCc5ccccc5Cl)cc4O)sc3c2)CC1 | 760 |
| 870 | 560 | 180 | 270 | – | 2420 | CC1CCN(Cc2ccc3nc(NC(=O)N/N=C/c4ccc(OCc5ccc(C(C)(C)C)cc5)cc4O)sc3c2)CC1 | 170 |
| 1330 | 710 | 1010 | 1430 | – | – | CCN(CC)Cc1ccc2nc(NC(=O)N/N=C/c3ccc(OCc4ccc(C)cc4)cc3O)sc2c1 | 580 |
| 1020 | 610 | 430 | 740 | – | 4960 | CCN(CC)Cc1ccc2nc(NC(=O)N/N=C/c3ccc(OCc4ccc(Cl)cc4)cc3O)sc2c1 | 540 |
| 720 | 550 | 140 | 480 | 16 | 250 | CCN(CC)Cc1ccc2nc(NC(=O)N/N=C/c3ccc(OCc4csc(Cc5ccc6c(c5)OCO6)n4)cc3O)sc2c1 | 510 |
